Molecules are shown by their SMILES. Converted amounts (≈) assume the structure as drawn. Read-outs that look alike come from different tables or passages of the source. Where a SMILES comes first, the peptide text is derived from it.

Series [1] has as its system P. acnes. The series can be described thus: MIC test by microdilution assay against P. acnes. In kind it is cell-based, Propionibacterium acnes.
The test system of series [2] is P. acnes. Conditions: background, literature; cited from earlier work.
For series [3], the system named is P. aeruginosa (ATCC19660).
Series [4] concerns P. aeruginosa derived from patient specimens.
The test system is the same in series [5]. Description: microbe, parasite or virus in culture. The settings on record: Pseudomonas aeruginosa, read-out: MIC against P. aeruginosa.
Series [6] concerns S. aureus. The series can be described thus: microbe, parasite or virus in culture. The settings on record: Staphylococcus aureus.
Series [7] deals with IL-8. The series can be described thus: IL-8 mRNA in P. aeruginosa-infected human corneal epithelial cells. Conditions: HCET cells. In kind it is cell-based. On the procedure:
Human corneal epithelial cells (HCET cells) were exposed to 2×10^4 CFU/mL tympanitis-derived P. aeruginosa either in the presence or absence of antimicrobial peptides. Specifically, HP(2-20) and its derivatives HPA3NT3, ISFGW, and F1AF8A were added to samples at concentration of 3.2 μM. Moreover, a cathilocidin-derived peptide (P5) was also added to some conditions at a concentration of 1.6 μM.

Series [8] has as its system M. furfur. Description: MIC microdilution assay against M. furfur.
The subject of series [9] is P. acnes. Description: P. acnes-induced inflammatory response in ICR mouse ears. Conditions: ICR mice. In kind it is in vivo. On the procedure:
Right ears of ICR mice (Harlan, Indianapolis, Ind.) were intradermally injected with P. acnes (1×10^8 CFU per 20 μl in Phosphate-Buffered Saline (PBS)) with or without HPA3NT3 peptide (6.4 μM). Left ears of the same mice were injected with 20 μl of PBS. In negative control ICR mice, right ears remained untreated while left ears received intradermal injections of PBS. For histological observation, the cross-sectioned ear was stained with hematoxylin and eosin (Sigma) and viewed on a Zeiss Axioskop2 plus microscope (Carl Zeiss) 24 to 48 hours after injection. The increase in ear thickness was measured using a micro caliper (Mitutoyo 547-400S; MSI Viking Gage, Charleston, S.C.) prior to, and at 24, 48, and 72 hours post injection. The percent difference in ear thickness (right vs. left ear) was determined by an induced ear inflammation ratio (percent difference in the experimental ear divided by the percent difference in the control ears). Ten milligrams of tissue from an 8 mm biopsy that was punched from ears at 24 hours after P. acnes injection was homogenized in 250 μl of sterile PBS with a tissue grinder. CFUs of P. acnes were determined by plating serial dilutions of the homogenate on an agar plate under anaerobic conditions for 48 hours.

In series [10] the test system is human keratinocytes (HK cells).
Series [11] can be described thus: in vitro. The settings on record: human, HK cells (human keratinocytes).
The mark [12] stands for this setting: Cutibacterium acnes, strain ATCC6919, read-out: MIC against P. acnes.
Where [13] appears, read: Cutibacterium acnes, strain ATCC11828, read-out: MIC against P. acnes.
Where [14] appears, read: clinical isolate Patient #2 (tympanitis).
[15] abbreviates: clinical isolate Patient #1 (tympanitis).

As for `O=C(OOC(=O)c1ccccc1)c1ccccc1` [Benzoyl Peroxide, benzoyl peroxide], the MIC was 125 µM (≈ 30.3 µg/mL) in series [1] (setting [12]); 62.5 µM (≈ 15.1 µg/mL) in series [1] (setting [13]); 62.5 µM (≈ 15.1 µg/mL) in series [1] (Cutibacterium acnes, text summary of Table 1A, strain not named, read-out: MIC value against P. acnes). Moreover, the “minimal inhibitory concentration (MIC)” value in series [2] was 150 mg/L (≈ 619 µM).
Take `CC[C@H](C)[C@H](NC(=O)CNC(=O)[C@@H](NC(=O)[C@H](CCCCN)NC(=O)[C@H](CCCCN)NC(=O)[C@H](Cc1ccccc1)NC(=O)[C@H](CC(C)C)NC(=O)[C@H](CCCCN)NC(=O)[C@H](Cc1c[nH]c2ccccc12)NC(=O)[C@@H](N)CCCCN)[C@@H](C)CC)C(=O)NCC(=O)N[C@@H](CCCCN)C(=O)N[C@@H](Cc1ccccc1)C(=O)N[C@@H](CC(C)C)C(=O)N[C@@H](Cc1c[nH]cn1)C(=O)N[C@@H](CO)C(=O)N[C@@H](C)C(=O)N[C@@H](CCCCN)C(=O)N[C@@H](CCCCN)C(=O)N[C@@H](Cc1ccccc1)C(N)=O` [CA-MA] (H-KWKLFKKIGIGKFLHSAKKF-NH2): in [3], the “MIC against P. aeruginosa (ATCC19660)” value came out at 1.562 µM (≈ 3.76 µg/mL).
Regarding `CC(C)(O/N=C(\C(=O)N[C@@H]1C(=O)N2C(C(=O)[O-])=C(C[n+]3ccccc3)CS[C@H]12)c1csc(N)n1)C(=O)O` [Ceftazidime, ceftazidime], in [4] (setting [14]), the “MIC against P. aeruginosa” value is more than 32 mg/L. The MIC in series [5] was more than 32 mg/L.
For `CCC[C@@H]1C[C@@H](C(=O)N[C@@H]([C@H]2O[C@H](SC)[C@H](O)[C@@H](O)[C@H]2O)[C@H](C)Cl)N(C)C1` [Clindamycin, clindamycin], the MIC in series [1] (setting [12]) was less than 0.2 µM; in series [1] (setting [13]), less than 0.2 µM; in series [6] (ATCC8096, read-out: MIC against S. aureus) it was more than 50 µM; in series [6] (ATCC25923, read-out: MIC against S. aureus), more than 50 µM; in series [6] (ATCC29213, read-out: MIC against S. aureus), more than 50 µM.
For `CC[C@H](C)[C@H](NC(=O)[C@H](CCCCN)NC(=O)[C@H](CO)NC(=O)[C@H](Cc1ccccc1)NC(=O)[C@H](CC(C)C)NC(=O)[C@H](CCCCN)NC(=O)[C@H](CCC(=O)O)NC(=O)[C@H](CC(C)C)NC(=O)[C@H](CCCNC(=N)N)NC(=O)[C@H](CCCCN)NC(=O)[C@H](Cc1ccccc1)NC(=O)[C@@H](NC(=O)[C@H](CCCCN)NC(=O)[C@H](CCCCN)NC(=O)[C@H](C)N)C(C)C)C(=O)N[C@@H](CCC(N)=O)C(=O)N[C@@H](CC(N)=O)C(=O)N[C@@H](CC(=O)O)C(=O)N[C@@H](CCCCN)C(N)=O` [HP(2-20)] (H-AKKVFKRLEKLFSKIQNDK-NH2; N-terminus and C-terminus assumed), the MIC in [1] (text summary of Table 1A, strain not named, read-out: MIC value against P. acnes) is listed as 0.8 µM (≈ 1.86 µg/mL). Besides, the “P. aeruginosa infection induced IL-8 expression (mRNA)” value in series [7] (3.2 μM, 24 hours) is listed as “significantly inhibited”. Also, the “expression of IL-8, peptide without P. aeruginosa” value in series [7] (data not shown) is recorded as “did not impact the expression of IL-8”. Also, the “MIC against M. furfur” value in series [8] is less than 0.195 µM.
For the compound `CC[C@H](C)[C@H](NC(=O)[C@H](CCCCN)NC(=O)[C@H](CCCCN)NC(=O)[C@H](Cc1ccccc1)NC(=O)[C@H](CC(C)C)NC(=O)[C@H](CCCCN)NC(=O)[C@H](CCCCN)NC(=O)[C@H](CC(C)C)NC(=O)[C@H](CCCNC(=N)N)NC(=O)[C@H](CCCCN)NC(=O)[C@@H](N)Cc1ccccc1)C(=O)N[C@@H](Cc1c[nH]c2ccccc12)C(=O)N[C@@H](CC(N)=O)C(=O)N[C@@H](Cc1c[nH]c2ccccc12)C(=O)N[C@@H](CCCCN)C(=O)O` [HPA3NT3] (H-FKRLKKLFKKIWNWK-OH), in series [9], the “ear thickness or inflammation, peptide alone (histology)” value is reported as “did not affect ear thickness or inflammation” and the “erythema or ear swelling, peptide in uninfected ears” value is “no significant changes”. Also, the “MIC against P. aeruginosa” value in [4] (derived from patient specimens) was determined as 16 mg/L (≈ 7.75 µM). In [10], the Cell viability is recorded as 100% and the “cytotoxicity to HK cells” value was “only minimal cytotoxicity”. In series [11], this compound returned a viability at 24 h, 1.6 µM of 100%; a viability at 24 h, 3.2 µM of 100%; a viability at 24 h, 6.4 µM of 100%.
With `CC[C@H](C)[C@H](NC(=O)[C@H](CCCCN)NC(=O)[C@H](CCC(=O)O)NC(=O)[C@H](CCCCN)NC(=O)[C@H](CO)NC(=O)[C@H](CCCCN)NC(=O)[C@H](CCCNC(=N)N)NC(=O)[C@H](Cc1ccccc1)NC(=O)[C@H](Cc1ccccc1)NC(=O)[C@H](CC(=O)O)NC(=O)CNC(=O)[C@H](CC(C)C)NC(=O)[C@@H](N)CC(C)C)C(=O)NCC(=O)N[C@@H](CCCCN)C(=O)N[C@@H](CCC(=O)O)C(=O)N[C@@H](Cc1ccccc1)C(=O)N[C@@H](CCCCN)C(=O)N[C@@H](CCCNC(=N)N)C(=O)N[C@H](C(=O)N[C@H](C(=O)N[C@@H](CCC(N)=O)C(=O)N[C@@H](CCCNC(=N)N)C(=O)N[C@H](C(=O)N[C@@H](CCCCN)C(=O)N[C@@H](CC(=O)O)C(=O)N[C@@H](Cc1ccccc1)C(=O)N[C@@H](CC(C)C)C(=O)N[C@@H](CCCNC(=N)N)C(=O)N[C@@H](CC(N)=O)C(=O)N[C@@H](CC(C)C)C(=O)N[C@H](C(=O)N1CCC[C@H]1C(=O)N[C@@H](CCCNC(=N)N)C(=O)N[C@H](C(=O)N[C@@H](CCC(=O)O)C(=O)N[C@@H](CO)C(=O)O)[C@@H](C)O)C(C)C)[C@@H](C)CC)C(C)C)[C@@H](C)CC` [LL37], the “MIC against P. aeruginosa” value in series [4] (setting [15]) and in series [4] (setting [14]) was more than 32 mg/L in each case.
As to `CC[C@H](C)[C@H](NC(=O)CN)C(=O)NCC(=O)N[C@@H](C)C(=O)N[C@H](C(=O)N[C@@H](CC(C)C)C(=O)N[C@@H](CCCCN)C(=O)N[C@H](C(=O)N[C@@H](CC(C)C)C(=O)N[C@H](C(=O)N[C@H](C(=O)NCC(=O)N[C@@H](CC(C)C)C(=O)N1CCC[C@H]1C(=O)N[C@@H](C)C(=O)N[C@@H](CC(C)C)C(=O)N[C@H](C(=O)N[C@@H](CO)C(=O)N[C@@H](Cc1c[nH]c2ccccc12)C(=O)N[C@H](C(=O)N[C@@H](CCCCN)C(=O)N[C@@H](CCCNC(=N)N)C(=O)N[C@@H](CCCCN)C(=O)N[C@@H](CCCNC(=N)N)C(=O)N[C@@H](CCC(N)=O)C(=O)N[C@@H](CCC(N)=O)C(N)=O)[C@@H](C)CC)[C@@H](C)CC)[C@@H](C)O)[C@@H](C)O)C(C)C)C(C)C` [Melittin], the “MIC against P. aeruginosa” value amounted to 8 mg/L (≈ 2.81 µM) in [4] (setting [15]) and 16 mg/L (≈ 5.62 µM) in [4] (setting [14]).
In the case of `CN[C@H](CC(C)C)C(=O)N[C@H]1C(=O)N[C@@H](CC(N)=O)C(=O)N[C@H]2C(=O)N[C@H]3C(=O)N[C@H](C(=O)N[C@H](C(=O)O)c4cc(O)cc(O)c4-c4cc3ccc4O)[C@H](O)c3ccc(c(Cl)c3)Oc3cc2cc(c3O[C@@H]2O[C@H](CO)[C@@H](O)[C@H](O)[C@H]2O[C@H]2C[C@](C)(N)[C@H](O)[C@H](C)O2)Oc2ccc(cc2Cl)[C@H]1O` [Vancomycin, vancomycin], the “MIC against P. aeruginosa” value in [4] (setting [14]) was more than 32 mg/L. In addition, the MIC in series [5] is more than 32 mg/L.
For the compound `CC(C)C[C@H](NC(=O)[C@H](CCCCN)NC(=O)[C@H](CCCCN)NC(=O)[C@H](CC(C)C)NC(=O)[C@H](CC(C)C)NC(=O)[C@H](CCCCN)NC(=O)[C@H](CCCCN)NC(=O)[C@H](CC(C)C)NC(=O)[C@H](CC(C)C)NC(=O)[C@@H]1CCCN1C(=O)[C@H](CCCCN)NC(=O)[C@H](CCCCN)NC(=O)[C@H](CC(C)C)NC(=O)[C@H](CC(C)C)NC(=O)[C@H](CCCCN)NC(=O)[C@H](CCCCN)NC(=O)[C@H](Cc1c[nH]c2ccccc12)NC(=O)[C@@H](N)CCCCN)C(N)=O` [p5] (H-KWKKLLKKPLLKKLLKKL-NH2; N-terminus and C-terminus assumed), in [3], the “MIC against P. aeruginosa (ATCC19660)” value was determined as 0.78 µM (≈ 1.75 µg/mL).

Values taken from patent US9278121B2, “Methods of use for an antimicrobial peptide” (priority 2013, dated 2016).
